Patent US20090215895A1, “Therapeutic and carrier molecules” (PEPLIN BIOLIPIDS PTY LTD, priority 2004, published 2009)
“Also recorded” adds a separate entry of the source.

What was measured:
neutrophil NADPH oxidase = assay: Neutrophil respiratory burst (NADPH oxidase activation, chemiluminescence); type: cell-based, human; details: human neutrophils, up to 30 μmol/l
Experimental: The structure of PT2 is shown in (c) above. In this screening assay, neutrophils were prepared from the blood of healthy volunteers. Freshly collected blood was layered onto a Hypaque-Ficoll medium of density 1.114 and centrifuged at 400 g for 30 mins at room temperature. After centrifugation, the leukocytes resolved into two distinct bands, with neutrophils being present in the second band (Ferrante and Thong, J. Immun. Methods 48:81-85, 1982).
Activation of the neutrophil NADPH oxidase was measured by lucigenin-dependent chemiluminescence following a 10 min incubation of PT2 (20 μM, final concentration) with 1×10^6 neutrophils from different donors (Power et al, J. Immunol. 159:2952-2959, 1997). Arachidonic acid (20:4, n-6) was used as a positive stimulator of the oxidase
Neutrophil respiratory burst was determined as previously described (Li et al, J. Clin. Invest. 97:1605-1609, 1996).

VCAM-1 = assay: Adhesion molecule expression on HUVEC (ELISA); type: cell-based, human; details: for Suppression of TNF-α-induced VCAM-1 expression on HUVEC: 60 min pre-treatment
Experimental: (§1) FIG. 13 is a representation showing effect of MP3 (β-oxa-23:4n-6) and 20:4n-6 on time-related changes in TNF-α-induced E-selectin, ICAM-1 and VCAM-1 expression on HUVEC. HUVEC were pre-treated with 20 μmol/l β-oxa-23:4n-6 (closed triangles), 20 μmol/l 20:4n-6 (open squares), or DPC (control) for 60 min and then further incubated with TNF-α (125 U/200 μl medium) for up to 24 hr. The expression of E-selectin, ICAM-1 and VCAM-1 adhesion molecules was determined by ELISA. The results are expressed as % of control and represent the mean±SEM of three separate experiments each performed in triplicate. * p<0.05, **p<0.01, ***p<0.001, for significant differences between pre-treatment with fatty acid and corresponding control at a particular time point (one-way analysis of variance followed by the Dunnett test for multiple comparisons). Inset: The effect of β-oxa-23:4n-6 on TNF-α-induced expression of E-selectin mRNA in HUVEC. HUVEC were pre-incubated with β-oxa-23:4n-6 (20 μmol/l) or DPC (control) in 1 ml of medium at 37° C. for 60 min. After the addition of TNF-α, the cells were further incubated at 37° C. for 2 hr. E-selectin mRNA expression was then determined and the results expressed as relative %. Results are the mean±SEM of three separate experiments each performed in quadruplicate. *p<0.0001, for significant differences between pre-treatment with β-oxa-23:4n-6, and control (two-tailed Student's t-test for unpaired data).
(§2) HUVEC were stimulated with TNF, bacterial lipopolysaccharide (LPS) or PMA for 24 hr. Expression of E-selectin, ICAM-1 and VCAM-1 was determined by an enzyme-linked immunosorbent assay (ELISA) or as mRNA using a slot blot technique (Huang et al 1997 supra).

ICAM-1 = assay: Adhesion molecule expression on HUVEC (ELISA); type: cell-based, human; details: for Suppression of TNF-α-induced ICAM-1 expression on HUVEC: 60 min pre-treatment
Experimental: as §1, §2

[1] = LPS-induced influx of neutrophils and mononuclear cells in the peritoneal cavity; type: in vivo, BALB/c mice; details: 40 mg/kg intravenously, 6 hr before LPS
Experimental: FIG. 14 is a representation showing (A) effect of MP3 on in vivo inflammatory response measured as delayed type hypersensitivity (DTH) to sheep erythrocytes and LPS-induced influx of neutrophils and mononuclear cells in the peritoneal cavity in BALB/c mice. In the DTH experiments mice were injected with sheep erythrocytes subcutaneously, challenged with the antigen in the hind foot pad 6 days later and the amount of foot pad swelling measured 48 hr later. One hour prior to challenge mice were given 10 mg/kg body weight of β-oxa fatty acid in 7% w/v, DMSO as vehicle intraperitoneally. […] The data, expressed as % of control, are presented as mean±SEM of 10 and 5 mice for DTH and peritoneal inflammation, respectively. […] The data, expressed as % of control, are presented as mean±SEM of ten mice per group and is representative of two experimental runs. […]
Effect of MP3 (β-oxa-23:4n-6) on the in vivo inflammatory response was measured as a delayed type hypersensitivity (DTH) reaction and LPS-induced influx of neutrophils and mononuclear cells in the peritoneal cavity in BALB/c mice. For DTH experiments, mice were injected subcutaneously with 100 μl of 10% hematocrit sheep erythrocytes, challenged with the antigen (25 μl of 40%) in the hind foot pad 6 days later and the degree of foot pad swelling measured 48 hr later (Ferrante et al, Clin. & Exp. Immunol. 38:70-76, 1979). […]

[2] = 20 μmol/l, listed as β-oxa-23:4n-6

CCCCC/C=C\C/C=C\C/C=C\C/C=C\CCCCOCC(=O)O [MP3, β-oxa-23:4n-6]
Stimulation of the neutrophil respiratory burst (chemiluminescence response) (neutrophil NADPH oxidase): relatively poor at stimulating this response; also recorded: failed to cause any significant respiratory burst
Suppression of TNF-α-induced VCAM-1 expression on HUVEC (VCAM-1; 20 μmol/l): better than docosahexaenoic acid (22:6n-3) at suppressing
Suppression of TNF-α-induced VCAM-1 expression on HUVEC (VCAM-1; [2]): inhibited the expression
Time of cytokine treatment at maximum inhibition of VCAM-1 expression (VCAM-1; 20 μmol/l, TNF-α): 12 h
Inhibition of LPS and PMA-induced up-regulation of VCAM-1 (VCAM-1; HUVEC): inhibited LPS and PMA-induced, up-regulation
Suppression of TNF-α-induced ICAM-1 expression on HUVEC (ICAM-1; 20 μmol/l): better than docosahexaenoic acid (22:6n-3) at suppressing
Suppression of TNF-α-induced ICAM-1 expression on HUVEC (ICAM-1; [2]): inhibited the expression
Time of cytokine treatment at maximum inhibition of ICAM-1 expression (ICAM-1; 20 μmol/l, TNF-α): 6 h
Inhibition of LPS and PMA-induced up-regulation of ICAM-1 (ICAM-1; HUVEC): inhibited LPS and PMA-induced, up-regulation
LPS-induced mononuclear cell infiltrate (72 hr) [1]: inhibition of the mononuclear cell infiltrate after 72 hr
LPS-induced neutrophil influx (24 hr) [1]: inhibited the neutrophil influx
